This note sets out measurements from patent US4607023A, “Natriuretic” (L'Institut de Recherches Cliniques de Montreal, priority 1983, dated 1986).

Entries after “also recorded” stand apart in the source; their conditions may differ. Bridge positions count the residues as written; N and C are the ends.

The test system of experiment [1] is female Sprague-Dawley rats. Put plainly: Natriuretic and diuretic bioassay: urinary Na+ excretion after i.v. bolus in anesthetized rats. Format: in vivo, rat. The following applies: for natriuretic activity, comparison in words (FIG. 12): 15 to 1350 pmoles i.v. bolus, change of Na+ excretion per 20 min, at least four rats per dose. The method, then: Diuretic and natriuretic activities of the ANFs are determined by the method of Garcia et al., (1982) Experientia 38, 1071-1073 and of Thibault et al., (1983) Hypertension 5, (Suppl. I), 75-80, both cited above, in female Sprague-Dawley rats (180-200 g) anesthetized with pentobarbital (60 mg/kg i.p.) equipped with a bladder catheter and an intrajugular vein catheter. The animals receive an infusion of 5% dextrose (3 ml/hr) for 45 minutes before the assay and during the evaluation period. Urine is collected in pre-weighed vials for 20 minute intervals. Following a basal collection period the ANFs to be assayed are injected as a bolus of 1 ml in Krebs solution pH 7.4 via the intrajugular vein catheter, urine is collected for a 20 minute period, and sodium concentrations are determined by flame photometry. Results are expressed as μEq of Na^+ for the collection period of 20 minutes from which the sodium excretion of the control period has been subtracted (ΔμEq Na^+ /20 min), and specific activity is defined as ΔμEq Na^+ /20 min/mg of protein. Protein is measured by the Bradford assay, see Spector, T. (1978) Anal. Biochem. 86, 142-146, with bovine albumin as a standard except for substantially pure ANFs where the amount of peptide is estimated from the amino acid sequencer.
Generally, in the purification procedures described above, unless otherwise specified all procedures are carried out at 4° C. At the end of each chromatographic step the material is lyophilized and then stored at -20° C. until used. For small volume (<6 ml) lyophilization is carried out in polystyrene tubes (1.5×7 cm) in a Savant Speed Vac concentrator. Larger volumes in the first steps are lyophilized in glass flasks. For subsequent steps, samples are dissolved in 1 to 3 ml of 0.01M ammonium acetate, pH 5.0, and aliquots are taken for the biological assay (Garcia et al., (1982) Experientia 38, 1071-1073, cited above) which are done in duplicate.
Generally, in the purification procedures discussed above, unless otherwise specified all procedures were carried out at 4° C. At the end of each chromatographic step the material was lyophilized and then stored at -20° C. until used. For small volume (<6 ml) lyophilization was carried out in polystyrene tubes (1.5×7 cm) in a Savant Speed Vac concentrator. Larger volumes in the first steps were lyophilized in glass flasks. For subsequent steps, samples were dissolved in 1 to 3 ml of 0.01M ammonium acetate, pH 5.0. Aliquots were taken for the biological assay (Garcia et al. (1982) Experientia 38, 1071-1073) which were done in duplicate. Proteins were measured by the Bradford assay (Spector, T. (1978) Anal. Biochem. 86, 142-146) with bovine albumin as a standard except in the last step where the amount of peptides was estimated from the amino acid sequencer.
The natriuretic activities of native ANF(2-33), ANF(3-33) and synthetic ANF(8-33) acid or amide forms were determined by a biological assay (Garcia, R., Cantin, M., Thibault, G., Ong, H. and Genest, J. (1982) Experientia 38: 1071-1073; Thibault, G., Garcia, R., Cantin, M., and Genest, J. (1983) Hypertension 5 (Suppl. I): 75-83), both references cited above. Female Sprague-Dawley rats (180-200 g) were used as bioassay animals. They were anesthetized with pentobarbital (60 mg/kg i.p.) and a bladder catheter and an intrajugular vein catheter were installed. The animals received a 5% (W/V) dextrose infusion (2.1 ml/hr) 30 minutes before the assay and during the evaluation period. Urine was collected in preweighed vials for 20-minute intervals. After a basal collection period, the ANF peptides (native ANF(2-33) or (3-33) or synthetic (8-33) acid or amide forms; 15 to 1350 pmoles) were injected in a bolus injection in 1 ml of Krebs solution, pH 7.4. Each dose was injected in at least four rats. The sodium concentration was measured by a flame photometer. The results are expressed in terms of change of Na^+ excretion per 20 min±SEM.

The subject of experiment [2] is rabbit renal arteries (helical vascular strips). Put plainly: Vasorelaxant activity in vitro on norepinephrine-contracted rabbit renal artery strips. Format: cell-based. The following applies: 0.25 μg peptide added to the bath 5 min before the cumulative NE curve; p<0.01. The protocol: The vasorelaxant activities of the ANFs of this invention are determined in vitro by means of a procedure involving the use of mammalian vascular strips. Briefly, healthy rabbits are anesthetized with sodium pentobarbital (30 mg/kg i.v.), their renal arteries are rapidly excised, fat and connective tissure are trimmed off, and the arterial issue is helically cut. The helical strips thus obtained are mounted between a fixed base and a force displacement transducer, immersed in a bath of continuously oxygenated Krebs solution at 37° C. and pH 7.4, and a tension of 500-700 mg is applied to the strip of arterial tissue. L-Norepinephrine bitartrate (NE) is added to the bath to obtain concentrations of NE ranging from 3.9×10^-6 to […], the contractions elicited by NE are registered on a polygraph, and a cumulative dose-response curve is established. Once a standard curve is reproducible it is repeated five minutes after having added 0.25 μg of the respective ANF to the bath. […]
For each arterial strip a cumulative dose-response curve to NE (L-norepinephrine bitartrate, Sigma Chemicals) ranging from 3.9×10^-6 to 1.6×10^-2 mM was obtained. […] The contraction elicited for each dose of NE is expressed as a percent of the maximum response.
Results are expressed as mean ±SEM. […]

Where [3] appears, read: native peptide peaks after last step, CN μBondapak column, high molecular weight region, rat bioassay.

“H-Ala-Gly-Pro-Arg-Ser-Leu-Arg-Arg-Ser-Ser-Cys-Phe-Gly-Gly-Arg-Ile-Asp-Arg-Ile-Gly-Ala-Gln-Ser-Gly-Leu-Gly-Cys-Asn-Ser-Phe-Arg-Tyr-OH (H-AGPRSLRRSSCFGGRIDRIGAQSGLGCNSFRY-OH; disulfide 11-27; ends not checked) [ANF(2-33), native rat atrial natriuretic factor of 32 amino acid residues]”: in experiment [1], the “natriuretic activity, comparison in words (FIG. 12)” value is “slightly higher than that of the above compounds; also recorded: slightly higher than that of the other forms”.

Regarding “H-Arg-Arg-Ser-Ser-Cys-Phe-Gly-Gly-Arg-Ile-Asp-Arg-Ile-Gly-Ala-Gln-Ser-Gly-Leu-Gly-Cys-Asn-Ser-Phe-Arg-Tyr-OH (H-RRSSCFGGRIDRIGAQSGLGCNSFRY-OH; disulfide 5-21; ends not checked) [ANF(8-33), native rat atrial natriuretic factor of 26 amino acid residues]”, in experiment [1] (setting [3]), the “specific activity (natriuretic)” value is recorded as 450,000 μEq of Na^+ excreted/20 min/mg. Besides, the “diuretic and natriuretic activity, general statements in words” value (“diuretic and natriuretic activity” below) in experiment [1] (rat bioassay) is reported as “more active than ANF(3-33) or ANF(1-33)”.

Regarding “H-Gly-Pro-Arg-Ser-Leu-Arg-Arg-Ser-Ser-Cys-Phe-Gly-Gly-Arg-Ile-Asp-Arg-Ile-Gly-Ala-Gln-Ser-Gly-Leu-Gly-Cys-Asn-Ser-Phe-Arg-Tyr-OH (H-GPRSLRRSSCFGGRIDRIGAQSGLGCNSFRY-OH; disulfide 10-26; ends not checked) [ANF(3-33), native rat atrial natriuretic factor of 31 amino acid residues]”, the “natriuretic activity, comparison in words (FIG. 12)” value in experiment [1] is “comparable natriuretic activities”. Further, in experiment [1] (after CN μBondapak reverse phase HPLC, partial inactivation of the peptide), the “specific activity of the material recovered (natriuretic)” value is reported as 84,000 μEq Na^+ excreted/20 min/mg. Also, the “specific activity (natriuretic)” value in experiment [1] (material at the Mono S column step, fractions 40 to 44 minutes, low molecular weight region) is 131,000 μEq of Na^+ excreted/20 min/mg. Moreover, in experiment [1] (rat bioassay), the “diuretic and natriuretic activity” value is given as “biologically active”. The “vasorelaxant activity: displacement of the norepinephrine dose-response curve (FIG. 13)” value in experiment [2] was “displacing the response to norepinephrine (NE) to the right”.

With “H-Leu-Ala-Gly-Pro-Arg-Ser-Leu-Arg-Arg-Ser-Ser-Cys-Phe-Gly-Gly-Arg-Ile-Asp-Arg-Ile-Gly-Ala-Gln-Ser-Gly-Leu-Gly-Cys-Asn-Ser-Phe-Arg-Tyr-OH (H-LAGPRSLRRSSCFGGRIDRIGAQSGLGCNSFRY-OH; disulfide 12-28; ends not checked) [ANF(1-33), native rat atrial natriuretic factor of 33 amino acid residues, disulfide bridge Cys12-Cys28]”, the “specific activity (natriuretic)” value in experiment [1] (setting [3]) was 297,000 μEq of Na^+ excreted/20 min/mg. Moreover, the “diuretic and natriuretic activity” value in experiment [1] (rat bioassay) is given as “biologically active”.
